Reference: article PMC10791743, “Selective CK1α degraders exert antiproliferative activity against a broad range of human cancer cell lines” (Nature Communications, 2024)

What was measured:
Assay in all cases: cells
Parameters in all cases: Oncolines panel cell viability, ATPlite 1Step luminescence, duplicate 9-point dose response, IC50
[1] = test system: A-427; details: Homo sapiens, A-427; 72 h viability; read-out: SJ3149
Experimental: (§1) Cell viability assays were performed as previously described. In brief, cells were seeded in a 384-well plate at an optimized density. The starting cell number was determined after 24 h incubation by adding ATPlite 1Step (Perkin Elmer, Groningen, the Netherlands) to each well and recording luminescence on an Envision multimode reader (Perkin Elmer, Waltham, MA). After the addition of a duplicate 9-point dilution series of SJ3149, cells were incubated for another 72 h, followed by cell counting using ATPlite 1Step. The dilution series ranged from 3.2 to 31,600 nM or was diluted 100-fold for the most sensitive cell lines to ideally capture the complete dose–response curve. Percentage viability was determined at each compound concentration by relating the observed signal to a vehicle-treated control, that is, medium containing 0.4% (v/v) DMSO. Compound IC50 values were calculated by fitting a 4-parameter logistic curve to the percentage viability values using IDBS XLfit5 (IDBS, Guildford, UK). The IC50 was limited to the maximum tested compound concentration when the IC50 exceeded the maximum tested concentration. […] To evaluate the compound’s effect and potential therapeutic application across a diverse range of human cancers, we profiled SJ3149 in Oncolines® panel consisting of 115 human cancer cell lines, of which 86 were solid tumor and 29 hematologic cell lines, including MOLM-13. Effect on cell viability was monitored using ATPLite™ (Perkin Elmer), which measures intracellular ATP content as an indirect readout of cell number, like CellTiter Glo.

[2] = test system: AN3 CA; details: Homo sapiens, AN3-CA; 72 h viability; read-out: SJ3149
Experimental: as §1

[3] = test system: AP-1060; details: 72 h viability; read-out: SJ3149
Experimental: as §1

[4] = test system: AsPC-1; details: Homo sapiens, ASPC1; 72 h viability; read-out: SJ3149
Experimental: as §1

[5] = test system: C-33 A; details: Homo sapiens, C-33-A; 72 h viability; read-out: SJ3149
Experimental: as §1

[6] = test system: DLD-1; details: Homo sapiens, DLD-1; 72 h viability; read-out: SJ3149
Experimental: as §1

[7] = test system: ES-2; details: Homo sapiens, ES-2; 72 h viability; read-out: SJ3149
Experimental: as §1

[8] = test system: G-361; details: Homo sapiens, G-361; 72 h viability; read-out: SJ3149
Experimental: as §1

[9] = test system: HCT-15; details: Homo sapiens, HCT-15; 72 h viability; read-out: SJ3149
Experimental: as §1

[10] = test system: HL-60; details: Homo sapiens, HL-60; 72 h viability; read-out: SJ3149
Experimental: as §1

[11] = test system: Hs 578T; details: Homo sapiens, Hs-578T; 72 h viability; read-out: SJ3149
Experimental: as §1

[12] = test system: Hs 746T; details: Homo sapiens, Hs746T; 72 h viability; read-out: SJ3149
Experimental: as §1

[13] = test system: MG-63; details: Homo sapiens, MG-63; 72 h viability; read-out: SJ3149
Experimental: as §1

[14] = test system: PF-382; details: Homo sapiens, PF-382; 72 h viability; read-out: SJ3149
Experimental: as §1

[15] = test system: PFSK-1; details: Homo sapiens, PFSK-1; 72 h viability; read-out: SJ3149
Experimental: as §1

[16] = test system: SJCRH30; details: 72 h viability; read-out: SJ3149
Experimental: as §1

[17] = test system: SNU-C2B; details: Homo sapiens, SNU-C2B; 72 h viability; read-out: SJ3149
Experimental: as §1

[18] = test system: SW837; details: Homo sapiens, SW837; 72 h viability; read-out: SJ3149
Experimental: as §1

[19] = test system: T24; details: Homo sapiens, T-24; 72 h viability; read-out: SJ3149
Experimental: as §1

[20] = test system: TCCSUP; details: Homo sapiens, TCC-SUP; 72 h viability; read-out: SJ3149
Experimental: as §1

Work on `O=C1CCC(N2Cc3cc(Nc4noc5ccccc45)ccc3C2=O)C(=O)N1` (centres unmarked) [SJ3149] yielded an IC50 [1] of over 31.6 µM, an IC50 [2] of over 31.6 µM and an IC50 [3] of 0.00135 µM. It also gave an IC50 [4] of over 31.6 µM, an IC50 [5] of over 31.6 µM and an IC50 [6] of over 31.6 µM. It also gave an IC50 [7] of over 31.6 µM, an IC50 [8] of over 31.6 µM and an IC50 [9] of over 31.6 µM. It also gave an IC50 [10] of over 31.6 µM, an IC50 [11] of over 31.6 µM and an IC50 [12] of over 31.6 µM. For the same compound, the IC50 [13] was over 31.6 µM, the IC50 [14] was over 31.6 µM and the IC50 [15] was over 31.6 µM. The IC50 [16] was over 31.6 µM, the IC50 [17] was over 31.6 µM and the IC50 [18] was over 31.6 µM. It also gave an IC50 [19] of over 31.6 µM and an IC50 [20] of over 31.6 µM.
